Data as given in article PMC6396024, “Artemin and an Artemin-Derived Peptide, Artefin, Induce Neuronal Survival, and Differentiation Through Ret and NCAM” (Frontiers in Molecular Neuroscience, 2019).
Ends that are not written are not given here.

Assays:
[1] = system: RET; cerebellar granule neurons (CGNs); test: Neurite outgrowth in CGNs transfected with dominant negative RET (dnRET); type: cell-based, Wistar rat; details: 24 h, P2-d 8 μg/ml, ARTN 0.21 nM, artefin 1.4 μM
Experimental: (§1) Cerebellar granule neurons (CGNs) were prepared from 7-day-old Wistar rat pups (Charles River Laboratories, Sulzfeld, Germany) as previously described ([Schousboe et al., 1989]). Briefly, pups were decapitated, and the cerebellum was removed and cleared from blood vessels and meninges in ice-cold modified Krebs-Ringer buffer. The cerebellum was dissociated by chopping and trypsinization. Cells were washed in Krebs-Ringer buffer containing DNAse I (Sigma, St. Louis, MO, United States) and soybean trypsin inhibitor (Sigma) to stop trypsinization, and the remaining tissue pieces were pelleted by centrifugation. Cells were then washed in Krebs-Ringer buffer containing Ca^2+ and Mg^2+ and re-suspended in appropriate Neurobasal^TM medium (Invitrogen, Taastrup, Denmark) with supplements depending on the experiment.
(§2) To evaluate the involvement of NCAM and RET in neurite outgrowth induced by either ARTN or artefin, CGNs (3 × 10^6 per transfection) were transfected with 3 μg DNA using a Nucleofector^TM 2b device and a Rat Neuron Nucleofector Kit (Amaxa, Inc., Gaithersburg, MD, United States). A kinase-deleted dominant negative RET insert was obtained by direct PCR using a commercially available clone (IRAKp961P02132Q; RZPD, Berlin, Germany) encoding full-length mouse RET coding sequence 586–3807 nt. as template. The upper primer […] contained a NheI restriction site and Kozak sequence, and the lower primer […] encoded Streptag II and NotI restriction sites. The dominant negative RET insert and the pcDNA5/FRT expression vector containing the Flp-In system were cut with NheI and NotI restriction enzymes, purified, ligated using the Rapid DNA Ligation Kit (Roche, Basel, Switzerland), and transfected into One Shot TOP10 E. coli (Invitrogen, Taastrup, Denmark). E. coli colonies containing the dominant negative RET insert were identified by PCR, and one insert-positive colony was used for plasmid purification. The identity of the purified plasmid was verified by restriction cutting and sequencing of the insert. For NCAM knock down, we used a pENTR vector containing the shRNA expression cassette for NCAM knock down ([Hansen et al., 2007]). An empty vector was used as a control. To identify transfected neurons, all transfections were performed as co-transfections with 0.5 μg pEGFP-N1, an expression vector encoding the enhanced variant of green fluorescent protein (GFP; Clontech, Palo Alto, CA, United States). Transfected CGNs were seeded in Neurobasal^TM-A medium supplemented with 2% (v/v) B27, 5% (v/v) FCS, and 2 mM Glutamax at a density of 1 × 10^5 cells/cm^2.
(§3) To estimate neurite outgrowth, neurons were fixated 24 h after stimulation and stained with rabbit anti-growth-associated-protein-43 (GAP-43) antibody (Chemicon International, Inc., Temecula, CA, United States) or anti-GFP antibody (for transfection experiment) overnight at 4°C followed by incubation with secondary Alexa-conjugated goat anti-rabbit antibodies (Invitrogen, Taastrup, Denmark). In case of experiments with plasmid transfection, the transfection efficiency was ca. 20% of total cells and the neurite outgrowth was evaluated only in GFP-positive, i.e., transfected, cells. For representative pictures, cells were additionally co-stained with Hoechst 33258.
(§4) Computer-assisted fluorescent microscopy was performed using a Nikon Diaphot 300 inverted microscope (Nikon) equipped with a Nikon Plan 20× objective and coupled to a video camera (Grundig Electronics, Germany). For each condition in each experiment, including the experiment with transfections, images of approximately 200 cells were recorded in systematic series of fields of view, and neurite outgrowth was quantified using a stereological approach as previously described ([Rønn et al., 2000]).
(§5) FIGURE 7 Neuritogenic effect of ARTN and artefin in (A) dominant negative RET or (B) knock down NCAM-expressing CGNs. […]

[2] = system: FGFR; cerebellar granule neurons (CGNs); test: Neurite outgrowth in CGNs with FGFR-inhibitor SU5402; type: cell-based, Wistar rat; details: p < 0.01
Experimental: as §1
Cerebellar granule neurons CGNs were re-suspended in Neurobasal^TM medium supplemented with 2% (v/v) B27, 0.5% (v/v) glutamax, 100 U/ml penicillin, 100 μg/ml streptomycin, 0.4% (w/v) BSA, and 20 mM HEPES and were seeded in 8-well LabTek Permanox chamber slides (Nunc) at a density of 1 × 10^4 cells/cm^2. Various concentrations of ARTN, artefin, scrambled artefin, or reversed artefin were added to neurons immediately after seeding. For the RET inhibition assay, the inhibitory goat anti-mouse RET antibody (4.1 μg/ml; R&D systems, Abingdon, United Kingdom) or control goat IgG (4.1 μg/ml; Santa Cruz Biotechnology, Dallas, TX, United States) were added to neurons 1 h before stimulation with ARTN (0.042 nM) […]. For the competition assay between growth factor and mimetic peptide, a combination of ARTN (2.1 nM) and artefin (4.2 μM) was added to the cells immediately after seeding. […]
To estimate neurite outgrowth, neurons were fixated 24 h after stimulation and stained with rabbit anti-growth-associated-protein-43 (GAP-43) antibody (Chemicon International, Inc., Temecula, CA, United States) or anti-GFP antibody (for transfection experiment) overnight at 4°C followed by incubation with secondary Alexa-conjugated goat anti-rabbit antibodies (Invitrogen, Taastrup, Denmark). In case of experiments with plasmid transfection, the transfection efficiency was ca. 20% of total cells and the neurite outgrowth was evaluated only in GFP-positive, i.e., transfected, cells. […]
Computer-assisted fluorescent microscopy was performed using a Nikon Diaphot 300 inverted microscope (Nikon) equipped with a Nikon Plan 20× objective and coupled to a video camera (Grundig Electronics, Germany). For each condition in each experiment, including the experiment with transfections, images of approximately 200 cells were recorded in systematic series of fields of view, and neurite outgrowth was quantified using a stereological approach as previously described ([Rønn et al., 2000]). […]

[3] = system: NCAM; cerebellar granule neurons (CGNs); test: Neurite outgrowth in CGNs with NCAM knock down (NCAM shRNA); type: cell-based, Wistar rat; details: 24 h, P2-d 8 μg/ml, ARTN 0.21 nM, artefin 1.4 μM
Experimental: as §1, §2, §3, §4, §5

[4] = system: cerebellar granule neurons (CGNs); test: Neurite outgrowth assay in CGNs; type: cell-based, Wistar rat; details: 24 h; ARTN 0.013–2.1 nM; artefin 0.16–37.9 μM; one-way ANOVA
Experimental: as §1
Cerebellar granule neurons CGNs were re-suspended in Neurobasal^TM medium supplemented with 2% (v/v) B27, 0.5% (v/v) glutamax, 100 U/ml penicillin, 100 μg/ml streptomycin, 0.4% (w/v) BSA, and 20 mM HEPES and were seeded in 8-well LabTek Permanox chamber slides (Nunc) at a density of 1 × 10^4 cells/cm^2. Various concentrations of ARTN, artefin, scrambled artefin, or reversed artefin were added to neurons immediately after seeding. For the RET inhibition assay, the inhibitory goat anti-mouse RET antibody (4.1 μg/ml; R&D systems, Abingdon, United Kingdom) or control goat IgG (4.1 μg/ml; Santa Cruz Biotechnology, Dallas, TX, United States) were added to neurons 1 h before stimulation with ARTN (0.042 nM) […]. For the competition assay between growth factor and mimetic peptide, a combination of ARTN (2.1 nM) and artefin (4.2 μM) was added to the cells immediately after seeding. To inhibit Fibroblast growth factor receptor (FGFR) pharmacologically, inhibitor of FGFR, SU5402 (Sigma), was added to the growth medium in serial dilutions of 20, 40, and 80 μM immediately after plating of CGNs, followed by addition of either P2-d (8 μg/ml), ARTN (0.21 nM), or artefin (1.4 μM) 1 h after the plating.
as §3, §4
FIGURE 3 Neurite outgrowth induced by ARTN (A), artefin-dendrimer (B), and artefin-monomer (C) in CGNs. Cells were stimulated with ARTN (0.013, 0.042, 0.13, 0.42, and 2.1 nM) or artefin (0.16, 0.47, 1.4, 4.2, 12.6, and 37.9 μM) for 24 h. For the unstimulated control, the absolute length of neurites was 11.47 ± 1.5 μm. Results from four independent experiments are expressed as percentage of untreated control set to 100% and presented as mean ± SEM. The mean neurite outgrowth lengths were compared using one-way ANOVA for repeated measurements. The effect of individual concentrations of ARTN and artefin was compared to control using one-way ANOVA with Dunnett’s post-hoc test, ^∗p < 0.05; ^∗∗p < 0.01. […]

[5] = system: cerebellar granule neurons (CGNs); test: Survival assay of CGNs induced to undergo apoptosis by potassium withdrawal; type: cell-based, Wistar rat; details: 50 ng/ml, 48 h, 5 mM KCl; p < 0.0001; positive control
Experimental: as §1
Cerebellar granule neurons were re-suspended in Neurobasal^TM-A medium supplemented with 2% (v/v) B27 (Invitrogen, Taastrup, Denmark), 0.5% (v/v) glutamax, 100 U/ml penicillin, 100 μg/ml streptomycin, and 40 mM KCl, and seeded at a density of 1 × 10^5 cells/well in 8-well LabTek Permanox chamber slides (Nunc, Roskilde, Denmark) coated with poly-L-lysine (10 μg/ml). To avoid proliferation of non-neuronal cells, cytosine-β-D-arabinofuranoside (Sigma) was added to cells 24 h after plating. CGNs were allowed to differentiate for 7 days in vitro (DIV) in the presence of 40 mM KCl before being induced to undergo apoptosis by changing the medium to one containing only 5 mM KCl (apoptotic medium) ([D’Mello et al., 1993]). At 7 DIV, cells were washed and stimulated with serially diluted ARTN or artefin diluted in the apoptotic medium. Three different controls were included; (1) cells grown in medium containing 40 mM KCl served as a positive control; (2) cells grown in medium containing 5 mM KCl served as a negative control; (3) cells grown in medium containing 5 mM KCl supplemented with 50 ng/ml insulin growth factor-1 (IGF-1) (Life Technology), a known anti-apoptotic factor for CGNs in this setup ([Galli et al., 1995]). After 48 h following the induction of apoptosis, cells were fixated in 4% formaldehyde for 30 min, and nuclear morphology was visualized with Hoechst 33258 staining (Invitrogen, Taastrup, Denmark) (Figure 2A). Images of cells were obtained using a Nikon Diaphot 200 fluorescent microscope equipped with a Nikon Plan 40× objective (Nikon, Tokyo, Japan) and coupled to a black-white video camera. Images of at least 1000 cells/well in different fields of view were analyzed, and the percentage of viable neurons was estimated as the ratio of live cells (non-pyknotic cells with dispersed chromatin) to the total number of neurons.
FIGURE 2 Effect of ARTN and artefin on survival of cerebellar granular neurons (CGNs) induced to undergo apoptosis. CGNs were differentiated for 7 days in the presence of 40 mM KCl before apoptosis was induced by potassium withdrawal. (A) Nuclear morphology of CGNs after Hoechst 33258 staining. […] Scale bar: 100 μm. Cells were grown for 48 h in media, containing 40 mM KCl, apoptotic medium (5 mM KCl) or apoptotic medium supplemented with 50 ng/ml IGF-1 (positive control) (B), serially diluted ARTN (C), or artefin (D). Each experiment was performed in the presence of the three controls (40 mM KCl, 5 mM KCl, and 5 mM KCl plus IGF-1), and the survival effect of the growth factor and the peptide was compared to its own apoptotic control (5 mM KCl). Results from the five experiments are expressed as percentage of 40 mM KCl control set at 100% and presented as mean ± SEM. The anti-apoptotic effect of ARTN and artefin was tested using Student’s paired t-test, where ^∗p < 0.05; ^∗∗p < 0.01; ^∗∗∗p < 0.001; ^∗∗∗∗p < 0.0001.

[6] = target: T1, recombinant rat NCAM Ig1–3 (rat, UniProt P13596 20-308); test: SPR; Biacore 2000, 25°C, HBS-EP (10 mM HEPES pH 7.4, 150 mM NaCl, 3 mM EDTA, 0.005% P20); ARTN (~2300 RU) or artefin (~1600 RU) amine-coupled on a CM4 chip; serially diluted GFRα3/Fc or NCAM Ig1–3 injected at 20 μl/min; 1:1 interaction model or steady-state affinity analysis; details: both partners purified
T1 construct: neural cell adhesion molecule (NCAM), rat, Ig1–3 domains; also called NCAM Ig1–3 domain; source: recombinant, produced as described previously (Soroka et al., 2003)
T1 sequence (P13596 20-308): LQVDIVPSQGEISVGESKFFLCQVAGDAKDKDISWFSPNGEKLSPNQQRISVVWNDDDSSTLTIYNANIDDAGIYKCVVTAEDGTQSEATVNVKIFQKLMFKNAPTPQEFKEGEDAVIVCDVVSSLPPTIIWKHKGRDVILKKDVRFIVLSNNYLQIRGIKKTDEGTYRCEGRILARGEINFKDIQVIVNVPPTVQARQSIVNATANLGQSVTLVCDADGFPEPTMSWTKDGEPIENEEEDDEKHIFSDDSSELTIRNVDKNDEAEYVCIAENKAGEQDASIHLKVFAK

[7] = target: T2, recombinant human GFRα3/Fc (human, UniProt O60609 32-374); test: as above; details: both partners purified
T2 construct: GDNF family receptor alpha-3 (GFRα3), human; Commercial Fc chimera; also called GFL receptor α3; source: bought: R&D Systems
T2 sequence (looked up): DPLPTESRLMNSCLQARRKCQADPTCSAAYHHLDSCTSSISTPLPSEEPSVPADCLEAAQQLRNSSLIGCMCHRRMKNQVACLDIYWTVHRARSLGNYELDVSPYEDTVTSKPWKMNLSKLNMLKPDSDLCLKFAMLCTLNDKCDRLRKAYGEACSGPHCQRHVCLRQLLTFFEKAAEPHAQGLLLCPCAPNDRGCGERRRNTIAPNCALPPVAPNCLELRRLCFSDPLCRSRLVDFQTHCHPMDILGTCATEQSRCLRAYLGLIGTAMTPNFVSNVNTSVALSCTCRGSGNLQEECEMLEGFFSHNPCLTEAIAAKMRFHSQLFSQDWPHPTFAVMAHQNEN

## GRILARGEINFK [P2-d, reference compound]
[1]; dnRET
  neurite outgrowth in dnRET-transfected neurons: significantly increased the level of neurite outgrowth in mock-transfected neurons as well as in neurons transfected with the vector encoding dnRET (p < 0.05
[1]; empty vector, versus control
  neurite outgrowth in mock-transfected neurons: significantly increased the level of neurite outgrowth in mock-transfected neurons
[2]; P2-d 8 μg/ml with 80 μM inhibitor
  neurite outgrowth with 80 μM FGFR inhibitor: significantly attenuated
[2]; P2-d 8 μg/ml
  neurite outgrowth in the absence of SU5402: promoted neurite outgrowth in the absence of SU5402 (p < 0.01)
[3]; NCAM shRNA
  neurite outgrowth in NCAM knock down neurons: eliminated in neurons transfected with NCAM shRNA (p < 0.01
[3]; empty vector, versus control
  neurite outgrowth in mock-transfected neurons: increased neurite outgrowth in mock-transfected neurons (p < 0.05)

## RSPHDLSLASLLGAG [artefin in monomer form]
[4]
  overall neuritogenic effect: did not demonstrate any significant neurite outgrowth

## IGF-1: insulin growth factor-1 (Life Technology), a known anti-apoptotic factor for CGNs [reference compound]
[5]
  neuronal survival (rescue from apoptosis by potassium withdrawal): significantly increased the number of CGNs rescued from the apoptosis

B1: artefin, ARTN-derived peptide synthesized as a tetramer (dendrimer) on a lysine backbone (peptide)
peptide: RSPHDLSLASLLGAG
modifications: also: tetramer: four monomers coupled to a lysine backbone
notes: amino acids 166-180 of human ARTN (UniProt D3DPX9), heel region; also called artefin-dendrimer; artefin-d; source: synthetic peptide (Schafer-N, Copenhagen; solid-phase Fmoc chemistry)
[6]
  Kd: 2800 nM
[7]
  Kd: 2.9 nM
